Results from ChEMBL document CHEMBL1124317, “Rationale for the synthesis and preliminary biological evaluation of highly active new antitumor nitrosoureido sugars” (J Med Chem, 1989).

Columns and labels:
Mus musculus [1] = assay: The number of B16 melanocarcinoma mice survived after 60 days with compound in olive oil injected by a dose of 20 mg/kg intraperitoneally; 2/20; format: functional; details: route intraperitoneal
Mus musculus [2] = assay: Anti tumor activity in olive oil when treated to mice with B16 melanocarcinoma with 20 mg/kg dose of compound intraperitoneally was expressed as percent of treated to control (T/C %); format: functional; details: route intraperitoneal
Mus musculus [3] = assay: The number of B16 melanocarcinoma mice survived after 30 days with compound in olive oil injected by a dose of 20 mg/kg intraperitoneally; 13/20; format: functional; details: route intraperitoneal
Mus musculus [4] = assay: The number of Lewis lung mice survived after 30 days with compound in olive oil injected by a dose of 20 mg/kg intraperitoneally; 18/20; format: functional; details: route intraperitoneal
Mus musculus [5] = assay: The number of Lewis lung mice survived after 60 days with compound in olive oil injected by a dose of 20 mg/kg intraperitoneally; 15/20; format: functional; details: route intraperitoneal
Mus musculus [6] = assay: The number of L1210 Leukemia mice survived after 60 days with compound in olive oil injected by a dose of 20 mg/kg intraperitoneally; 10/15; format: functional; details: route intraperitoneal
Mus musculus [7] = organism: Mus musculus; assay: Median survival time of the non surviving mice; there are two deaths on day 27, one death on day 29, and two deaths on day 41; format: functional, organism-based
Mus musculus [8] = assay: Median survival time of the non surviving mice; treated with 20 mg/kg of compound in olive oil to mice with B16 Melanocarcinoma; 14-55; format: functional
Mus musculus [9] = assay: Ratio of mice died to that of mice treated with 20 mg/kg of compound in olive oil intraperitoneally with B16 Melanocarcinoma; 0/20; format: functional; details: route intraperitoneal
Mus musculus [10] = assay: Ratio of mice died to that of mice treated with 20 mg/kg of compound in olive oil intraperitoneally with L1210 leukemia tumor; 0/15; format: functional; details: route intraperitoneal
Mus musculus [11] = assay: Ratio of mice died to that of mice treated with 20 mg/kg of compound in olive oil intraperitoneally with Lewis lung; 0/20; format: functional; details: route intraperitoneal
Mus musculus [12] = assay: The number of L1210 Leukemia mice survived after 30 days with compound in olive oil injected by a dose of 20 mg/kg intraperitoneally; 12/15; format: functional; details: route intraperitoneal

COC1CC(NC(=O)N(CCCl)N=O)C(O)C(CNC(=O)N(CCCl)N=O)O1 (configuration not stated)
Survivals (Mus musculus [1]): 2 | T/C (Mus musculus [2]): 225% | Survivals (Mus musculus [3]): 13 | Survivals (Mus musculus [4]): 18 | Survivals (Mus musculus [5]): 15 | Survivals (Mus musculus [6]): 10 | Median survival time (Mus musculus [7]): there are two deaths on day 27, one death on day 29, and two deaths on day 41 | Median survival time (Mus musculus [8]): 31.37 | Ratio (Mus musculus [9]): 0 | Ratio (Mus musculus [10]): 0 | Ratio (Mus musculus [11]): 0 | Survivals (Mus musculus [12]): 12
